pIC50: −log10 of the molar value.
How the values were obtained:
[1] = test system: Ehrlich ascites tumor cells (EATC); experiment: Antitumor activity in mice inoculated i.p. with Ehrlich ascites tumor cells; type: in vivo; details: for Median T/C ratio / Number of cured mice at 60 days / Number of cured mice at 90 days / Surviving at 60 days (cured mice and mice bearing a solid tumor) / Surviving at 90 days (cured mice and mice bearing a solid tumor): acetate salt i.p.; for Surviving at 10 days / Body weight change (mean, end of 10 days): mouse, in vivo, ip
Description: Male mice of the ICR (Swiss Hsd) strain from Harlan--Sprague Dawley (Indianapolis, Ind.) were injected intraperitoneal with saline containing 2×10^6 Ehrlich ascites tumor cells (EATC) on day 0. […] Treatment began 24 hours later with intraperitoneal injections of saline or inhibitor, either as the acetate salt or as the hydrochloride salt. The inhibitor was dissolved in 40° C. saline and injected at 10 μl/g body weight. In the case of drugs that were difficult to dissolve, e.g. the hydrochlorides, a non-ionic, low toxicity detergent was included to emulsify the drug, making it suitable for injection. Two cages of mice were assigned to each control or experimental group and fed standard lab chow. In almost all cases, the mice were injected daily for a total of 10 doses.
The 1-tailed Student t-test for unpaired samples was used for statistical analysis.
The experimental procedure set forth above was again followed with homologs of PDMP made from fatty acids of 10 to 18 carbon atom length. The compounds were not resolved into D- and L-forms but the threo stereomers were used as the hydrochlorides. All samples were emulsified in Myrj 52 (15 mg/kg).

[2] = target: T1, glucosyltransferase (EATC enzyme) (Mus musculus, UniProt O88693); experiment: Glucosyltransferase assay, microsomes from EATC; type: biochemical
T1 construct: Microsomes from EATC (0.50 mg protein) required 20 μM PDMP to reduce the glucosyltransferase activity in half; endogenous in cells; host or cells: Ehrlich ascites tumor cells (EATC), microsomes
T1 sequence (O88693 1-394): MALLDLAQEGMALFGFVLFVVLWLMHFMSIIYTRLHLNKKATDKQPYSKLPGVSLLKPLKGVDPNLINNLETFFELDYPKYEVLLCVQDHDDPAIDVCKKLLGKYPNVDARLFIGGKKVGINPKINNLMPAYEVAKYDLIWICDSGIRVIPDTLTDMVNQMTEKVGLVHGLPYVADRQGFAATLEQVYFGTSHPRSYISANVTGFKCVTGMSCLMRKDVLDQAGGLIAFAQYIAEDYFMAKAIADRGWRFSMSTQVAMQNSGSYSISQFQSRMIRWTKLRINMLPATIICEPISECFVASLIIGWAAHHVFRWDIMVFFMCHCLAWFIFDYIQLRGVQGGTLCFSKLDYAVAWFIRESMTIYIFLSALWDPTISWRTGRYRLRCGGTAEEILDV
Description: (§1) Evidence that D-threo-PDMP acts to inhibit GlcCer biosynthesis was provided as follows from assay of glucosyltransferase. Microsomes as source of enzyme were prepared by highspeed centrifugation and stored at -70° C. before use. The incubations were at 37° C. for 30 minutes with microsomes, ATP, liposomal octanoyl sphingosine, UDP-[^3 H]glu, Mg^2+, and dithioerythritol. Microsomes from EATC (0.50 mg protein) required 20 μM PDMP to reduce the glucosyltransferase activity in half. The microsomes from normal liver (72 μg protein) required 5 μM D-threo-PDMP. While the EATC enzyme seems to be less sensitive to the inhibitor, the intraperitoneal concentration of inhibitor is initially very high.

[3] = target: T2, glucosyltransferase (microsomes from normal liver) (Mus musculus, UniProt O88693); experiment: Glucosyltransferase assay, microsomes from normal liver; type: biochemical
T2 construct: The microsomes from normal liver (72 μg protein) required 5 μM D-threo-PDMP; from tissue; host or cells: normal liver microsomes, ICR Swiss mice
T2 sequence (O88693 1-394): T1 sequence (O88693 1-394)
Description: as §1
Our tentative conclusion is that these cells obtain much of their GlcCer from the peritoneum. Thus, the effectiveness of the drug can tentatively be ascribed to a blockage of GlcCer synthesis by both the host and tumor cells.

EATC [4] = experiment: Rechallenge of surviving treated mice with EATC; type: in vivo
Text: Four mice who had survived 63 days post-inoculation were challenged with another 2×10^6 EATC. […] Normal mice of this age, like the younger ones, are readily attacked by EATC. We conclude that the mice have, in effect, been "live-cell vaccinated" with EATC plus PDMP.

EATC [5] = experiment: D-threo-PDMP with detergents (Myrj 52 or Pluronic F68) in mice; type: in vivo; details: for Number of apparently cured mice at 60 days: 8 mice
Description: Male mice of the ICR (Swiss Hsd) strain from Harlan--Sprague Dawley (Indianapolis, Ind.) were injected intraperitoneal with saline containing 2×10^6 Ehrlich ascites tumor cells (EATC) on day 0. Each cage contained 4 or 5 mice which had been weight matched by a computer program for similar means (about 25 g) and similar standard deviations. Treatment began 24 hours later with intraperitoneal injections of saline or inhibitor, either as the acetate salt or as the hydrochloride salt. The inhibitor was dissolved in 40° C. saline and injected at 10 μl/g body weight. In the case of drugs that were difficult to dissolve, e.g. the hydrochlorides, a non-ionic, low toxicity detergent was included to emulsify the drug, making it suitable for injection. Two cages of mice were assigned to each control or experimental group and fed standard lab chow. In almost all cases, the mice were injected daily for a total of 10 doses.
Four groups of mice (8 per group) were injected once a day for 10 d with 120 mg/kg of D-threo-PDMP and 60 or 180 mg/kg of Myrj 52 or Pluronic F68. No deaths occurred in these mice by 10 days and, at 60 days, the number of apparently cured mice was 2 and 3 for the two Myrj groups and 1 and 3 for the two Pluronic groups.

Ehrlich ascites cells = experiment: Growth of Ehrlich ascites cells in vivo (volume of packed cells); details: treatment begun 3 days after EATC inoculation, 5 injections, killed 1 day later; 100 mg/kg
Description: A suspension of GlcCer was injected into one group of 10 mice inoculated 1 day earlier with EATC as before. Injectable suspensions of GlcCer and galactosylceramide (GalCer) were prepared by mechanical grinding in saline (10 mg/ml) and injected at a dosage of 100 mg/kg. In one experiment, the mice were killed 1 day after the last of eight daily injections and the ascites cells were flushed out of the abdomen with buffered saline and washed.
Treatments were begun 3 days after EATC inoculation. Only 5 injections were given and the mice were killed 1 day later.

[6] = 2 × 250 mg/kg/day, days 1-5, 1 × 150, days 6-10

With CCCCCCCCCC(=O)N[C@H](CN1CCOCC1)[C@H](O)c1ccccc1 [D-threo-PDMP, 1-Phenyl-2-Decanoylamino-3-Morpholino-1-Propanol] the “Median T/C ratio” value ([1]; 1 × 100 mg/kg/day, days 1-10) was 191%, the “Number of cured mice at 60 days” value ([1]; 1 × 100 mg/kg/day, days 1-10) was 4 and the “Number of cured mice at 90 days” value ([1]; 1 × 100 mg/kg/day, days 1-10) was 4. For the same compound, the “Surviving at 60 days (cured mice and mice bearing a solid tumor)” value (from here on “Surviving at 60 days”) ([1]; 1 × 100 mg/kg/day, days 1-10) was 7, the “Surviving at 90 days (cured mice and mice bearing a solid tumor)” value (“Surviving at 90 days” below) ([1]; 1 × 100 mg/kg/day, days 1-10, mice with solid tumors killed before 90 days) was 4 and the “Median T/C ratio” value ([1]; 1 × 150 mg/kg/day, days 1-10) was 319%. For the same compound, the “Number of cured mice at 60 days” value ([1]; 1 × 150 mg/kg/day, days 1-10) was 3, the “Number of cured mice at 90 days” value ([1]; 1 × 150 mg/kg/day, days 1-10) was 3 and the “Surviving at 60 days” value ([1]; 1 × 150 mg/kg/day, days 1-10) was 7. The “Surviving at 90 days” value ([1]; 1 × 150 mg/kg/day, days 1-10) was 5, the “Median T/C ratio” value ([1]; 2 × 100 mg/kg/day, days 1-5) was 238% and the “Number of cured mice at 60 days” value ([1]; 2 × 100 mg/kg/day, days 1-5) was 3. For the same compound, the “Number of cured mice at 90 days” value ([1]; 2 × 100 mg/kg/day, days 1-5) was 3, the “Surviving at 60 days” value ([1]; 2 × 100 mg/kg/day, days 1-5) was 5 and the “Surviving at 90 days” value ([1]; 2 × 100 mg/kg/day, days 1-5, mice with solid tumors killed before 90 days) was 3. The “Median T/C ratio” value [1, 6] was 150%, the “Number of cured mice at 60 days” value [1, 6] was 3 and the “Number of cured mice at 90 days” value [1, 6] was 3. For the same compound, the “Surviving at 60 days” value [1, 6] was 5, the “Surviving at 90 days” value [1, 6] was 5 and the “Percentage surviving for 60 days” value ([1]; dose response test, 75 mg/kg) was 10%. For the same compound, the “Percentage surviving for 60 days” value ([1]; dose response test, 100 mg/kg) was 20%, the “Percentage surviving for 60 days” value ([1]; dose response test, 125 mg/kg) was 50% and the “Time of death compared with controls” value ([1]; dose response test, 25 or 50 mg/kg) was “died at about the same time as the controls”. The “Mice still alive and healthy more than 5 months after inoculation” value ([1]; dose response test, two most-heavily dosed groups) was 40%, the “Surviving at 10 days” value ([1]; 100 mg/kg/day) was 10/10 and the “Body weight change (mean, end of 10 days)” value ([1]; 150 mg/kg/day) was -0.36 g. For the same compound, the “Surviving at 10 days” value ([1]; 150 mg/kg/day) was 10/10, the “Body weight change (mean, end of 10 days)” value ([1]; 250 mg/kg/day) was -3.49 g and the “Surviving at 10 days” value ([1]; 250 mg/kg/day) was 8/9. The Mice completely cured ([1]; variety of regimens) was “About 30%”, the pIC50 [2] was 4.70 and the pIC50 [3] was 5.30. The “Survivors developing no EATC after challenge” value (EATC [4]; five survivors challenged 135 and 100 days after inoculation, greater than 5 months of observation) was “four of them developed no EATC”, the “Effect of reinoculation with 2×10^6 EATC” value (EATC [4]; four mice surviving 63 days post-inoculation, observed greater than 7 months more) was “no effects of the reinoculation” and the “Number of apparently cured mice at 60 days” value (EATC [5]; 120 mg/kg for 10 d with Myrj 52, first group (60 mg/kg)) was 2. For the same compound, the “Number of apparently cured mice at 60 days” value (EATC [5]; 120 mg/kg for 10 d with Myrj 52, second group (180 mg/kg)) was 3, the “Number of apparently cured mice at 60 days” value (EATC [5]; 120 mg/kg for 10 d with Pluronic F68, first group (60 mg/kg)) was 1 and the “Number of apparently cured mice at 60 days” value (EATC [5]; 120 mg/kg for 10 d with Pluronic F68, second group (180 mg/kg)) was 3. The “Deaths by 10 days” value (EATC [5]; 120 mg/kg once a day for 10 d with 60 or 180 mg/kg of Myrj 52 or Pluronic F68, 8 per group) was “No deaths”, the “Volume of packed cells” value (Ehrlich ascites cells) was 1.68 ± 0.86 ml/mouse and the “Volume of packed cells, % of controls” value (Ehrlich ascites cells) was 62 % of controls.

Source: patent US5041441A, “Method of chemotherapy using 1-phenyl-2-decanoylamino-3-morpholino-1-propanol” (The Regents of the University of Michigan, priority 1988, dated 1991)
